Measurements reported in patent US20050192281A1, “Nitrone compounds, prodrugs and pharmaceuticals compositons of the same to treat human disorders” (priority 2003, published 2005).
Counter-ions that a name gives are not always drawn.

experiment: Free radical-scavenging/antioxidant assay (DPPH); assay type: biochemical; settings: 50 μM DPPH in 80% methanol, absorbance at 520 nm, 24 h time point (steady state)
Description: Nitrone compounds of the present invention were tested for their free-radical scavenging/antioxidant activity in an in vitro assay that was accepted by those skilled in the art as a model for conditions involving the generation of free radicals. The assay was based on a reaction between a free-radical donor, 2,2-diphenyl-1-picrylhydrazyl (DPPH), and a radical scavenger/antioxidant to be tested for free-radical scavenging activity. Upon donation of the free-radical electron to the purported radical scavenger, the peak vwasible absorbance of DPPH (515-520 nm) decreases so that optical density readings at thwas part of the vwasual spectrum reflect the progression of the following reaction: DPPH•+AH →DPPH—H+A• where AH was a hypothetical radical scavenger/antioxidant. The assay was based on a protocol originally detailed in Brand-Williams, W. et al., 1995, Use of a Free Radical Method to Evaluate Antioxidant Activity, Lebensm. Wwass. Technol., 28:25-30, with further modifications described in L. R. Fukumoto and G. Mazza, 2000, Assessing Antioxidant and Prooxidant Activities of Phenolic Compounds, J. Agric. Food Chem., 48:3597-3604.
The antioxidant assay was performed using Perkin-Elmer 96-well, clear-bottom, black-wall plates (ordered from E & K Scientific Products) and a Tecan Safire absorbance plate reader. The positive controls were Trolox (6-hydroxy-2,5,7,8-tetramethylchromane-2-carboxylic acid, Sigma-Aldrich), BHA (2(3)-tert-butylhydroquinone monomethyl ether, Sigma-Aldrich), PBN (C-(phenyl)-N-(tert-butyl)nitrone, Sigma-Aldrich) and S-PBN (C-(2-sulfophenyl)-N-(tert-butyl)nitrone, sodium salt, prepwered according to E. G. Janzen and R. V. Shetty, 1979, Tetrahedron Lett., 35: 3229-32), and the negative control (i.e., vehicle) was DMSO. In brief, 2 μL of 100×DMSO stock of the desired final concentration of each control or nitrone compound to be tested in the same batch was added to a separate well. To each well was then added 198 μL of a freshly made 50 μM DPPH (Sigma-Aldrich) solution in 80% methanol using a multi-channel pipette. The absorbance was immediately read on the plate reader at 520 nm and thereafter read periodically to assess kinetics until all reactions reached completion (i.e., steady state). Since the steady-state point was 24 h, the assay results were shown from the 24 h time point. The absorbance at 520 nm (OD) was plotted versus the concentrations of the controls and nitrone compounds to assess dose-response and interpolate the EC50 values of the controls and test compounds.

Compared with Cc1c(C)c2c(c(C)c1O)CCC(C)(C(=O)O)O2 (stereo not drawn) [Trolox, 6-hydroxy-2,5,7,8-tetramethylchromane-2-carboxylic acid, reference compound], COc1ccc(O)c(C(C)(C)C)c1 [BHA, 2(3)-tert-butylhydroquinone monomethyl ether, reference compound] is higher in EC50: < 10 µM for the first, 10 to 50 µM for the second. The first is the more potent here.

Compared with Cc1ccc(SC/C=[N+](\[O-])C(C)(C)C)cc1 [Example 10, N-tert-Butyl-C-[(4-methyl-thiophenoxy)methyl]nitrone], CC(C)(C)/[N+]([O-])=C/CCSc1ccccc1 [Example 20, N-tert-Butyl-C-2-(phenylsulfanyl)ethyl nitrone] is lower in EC50: 10 to 50 µM for the first, < 10 µM for the second. The second is the more potent here.

Compared with [O-]/[N+](=C\COc1ccccn1)C1CCCCC1 [Example 12, N-Cyclohexyl-C-(pyridin-2-yloxy)methyl nitrone], [O-]/[N+](=C\COc1ccccc1)C1CCCCC1 [Example 2, N-Cyclohexyl-C-(phenoxymethyl)nitrone] is higher in EC50: < 10 µM for the first, 50 to 100 µM for the second. The first is the more potent here.

CC(C)(C)/[N+]([O-])=C/COc1ccccn1 [Example 11, N-tert-Butyl-C-(pyridin-2-yloxy)methyl nitrone] and CC(C)(C)/[N+]([O-])=C/CCOc1ccccn1 [Example 25, N-tert-Butyl-C-2-(pyridin-2-yloxy)ethyl nitrone] fall in the same range of EC50: 10 to 50 µM for the first, 10 to 50 µM for the second.

First: COc1ccc(OC/C=[N+](\[O-])Cc2ccccc2)cc1 [Example 6, N-Benzyl-C-[(4-methoxy-phenoxy)methyl]nitrone]
Second: [O-]/[N+](=C\COc1ccccc1)Cc1ccccc1 [Example 3, N-Benzyl-C-(phenoxymethyl)nitrone]
The EC50 of the first is lower: < 10 µM for the first, 10 to 50 µM for the second.

Compared with Cc1ccc(C(C)C)c(OC/C=[N+](\[O-])C2CCCCC2)c1 [Example 8, N-Cyclohexyl-C-[(2-isopropyl-5-methyl-phenoxy)methyl]nitrone], Cc1ccc(C(C)C)c(OC/C=[N+](\[O-])C(C)(C)C)c1 [Example 7, N-tert-Butyl-C-[(2-isopropyl-5-methyl-phenoxy)methyl]nitrone] is higher in EC50: 10 to 50 µM for the first, 50 to 100 µM for the second.

First: [O-]/[N+](=C\COCc1ccccc1)C1CCCCC1 [Example 15, N-Cyclohexyl-C-(benzyloxy)methyl nitrone]
Second: [O-]/[N+](=C\CCOc1ccccc1)C1CCCCC1 [Example 18, N-Cyclohexyl-C-2-(phenoxy)ethyl nitrone]
The EC50 of the first is lower: 10 to 50 µM for the first, > 1000 µM for the second. The first is the more potent here.

CC(C)(C)/[N+]([O-])=C/COc1ccccc1 [Example 1, N-tert-Butyl-C-(phenoxymethyl)nitrone] and CC(C)(C)/[N+]([O-])=C/CCOc1ccccc1 [Example 17, N-tert-Butyl-C-2-(phenoxy)ethyl nitrone] fall in the same range of EC50: 10 to 50 µM for the first, 10 to 50 µM for the second.

First: COc1ccc(OC/C=[N+](\[O-])C2CCCCC2)cc1 [Example 5, N-Cyclohexyl-C-[(4-methoxy-phenoxy)methyl]nitrone]
Second: COc1ccc(OC/C=[N+](\[O-])C(C)(C)C)cc1 [Example 4, N-tert-Butyl-C-[(4-methoxy-phenoxy)methyl]nitrone]
The EC50 of the first is lower: < 10 µM for the first, 10 to 50 µM for the second. The first is the more potent here.

First: [O-]/[N+](=C\COc1ccccn1)Cc1ccccc1 [Example 13, N-Benzyl-C-(pyridin-2-yloxy)methyl nitrone]
Second: [O-]/[N+](=C\COCc1ccccc1)Cc1ccccc1 [Example 16, N-Benzyl-C-(benzyloxy)methyl nitrone]
The EC50 of the first is lower: < 10 µM for the first, 50 to 100 µM for the second.

First: CC(C/C=[N+](\[O-])Cc1ccccc1)Sc1ccccc1 (stereo not drawn) [Example 24, N-Benzyl-C-2-(phenylsulfanyl)propyl nitrone]
Second: [O-]/[N+](=C\CCSc1ccccc1)Cc1ccccc1 [Example 21, N-Benzyl-C-2-(phenylsulfanyl)ethyl nitrone]
The EC50 of the first is lower: < 10 µM for the first, 10 to 50 µM for the second.

CC(C)(C)/[N+]([O-])=C/c1ccccc1S(=O)(=O)O [SPBN, C-(2-sulfophenyl)-N-(tert-butyl)nitrone, sodium salt, reference compound] and CC(C)(C)/[N+]([O-])=C/c1ccccc1 [PBN, C-(phenyl)-N-(tert-butyl)nitrone, reference compound] cannot be ordered by EC50: > 1000 µM for the first, > 1000 µM for the second.

First: [O-]/[N+](=C\CCOc1ccccc1)Cc1ccccc1 [Example 19, N-Benzyl-C-2-(phenoxy)ethyl nitrone]
Second: Cc1ccc(C(C)C)c(OC/C=[N+](\[O-])Cc2ccccc2)c1 [Example 9, N-Benzyl-C-[(2-isopropyl-5-methyl-phenoxy)methyl]nitrone]
The EC50 of the first is higher: 100 to 1000 µM for the first, 50 to 100 µM for the second. The second is the more potent here.

First: CC(C/C=[N+](\[O-])C(C)(C)C)Sc1ccccc1 (stereo not drawn) [Example 22, N-tert-Butyl-C-2-(phenylsulfanyl)propyl nitrone]
Second: CC(C/C=[N+](\[O-])C1CCCCC1)Sc1ccccc1 (stereo not drawn) [Example 23, N-Cyclohexyl-C-2-(phenylsulfanyl)propyl nitrone]
The EC50 of the first is lower: < 10 µM for the first, 10 to 50 µM for the second. The first is the more potent here.

First: CC(C)(C)/[N+]([O-])=C/COc1nccc2ccccc12 [Example 14]
Second: CC(C)(C)/[N+]([O-])=C/COCc1ccccc1 [Example 26, N-tert-Butyl-C-(benzyloxy)methyl nitrone]
The EC50 of the first is higher: 50 to 100 µM for the first, 10 to 50 µM for the second. The second is the more potent here.
